Results taken from US20230158178A1, “Radionuclide Tracers of 1-Amino-3,4-Difluorocyclopentane-1-Carboxylic Acid, Derivatives, and Uses Thereof” (Emory University, priority 2020, published 2023).
One block for each compound: values may come before it.

What was measured:
[1] = system: human DU145 androgen-independent prostate carcinoma; experiment: Cell uptake study in DU145 prostate carcinoma cells; format: cell-based; conditions: for uptake in DU145 cells: no inhibitor, 30 min incubation
Method: (§1) Consistent with this reasoning, having knowledge of which systems take part in transporting a particular amino acid is of value, since this information can be used to determine which tumor types the amino acid may be useful for imaging. To establish which systems are responsible for transporting a particular AA, cell uptake inhibition studies are performed. In these studies, a known number of cells of a certain line are suspended in a media containing a known quantity of an amino acid radiotracer and incubated for a set period to allow for the amino acid to be transported into the cells. […] The radioactivity present within the cells after rinsing is measured and expressed as a normalized percent uptake of the radioactive amino acid dose that the cells were initially exposed to. This experiment establishes the degree to which a given amino acid is taken up by a group of cells in the absence of any perturbing conditions and serves as the control.
(§2) With this information in hand, the cell uptake experiment is performed again, but in the presence of an excess of a substrate known to have a high affinity for a particular transport system. The excess substrate floods the targeted system, competitively inhibiting the transport of other amino acids. Consequently, any reduction in cellular uptake of radioactivity relative to the control experiment is assumed to arise from loss of amino acid transport by the inhibited system. It follows that if inhibition of a transport system results in reduced uptake of a given amino acid, then that system contributes to cellular transport of the amino acid. Furthermore, the degree to which the system participates in transport can be roughly evaluated by the percent loss (inhibition) of amino acid uptake relative to the control. In addition to delineating transport mechanisms, cell uptake studies provide insight into the avidity of a particular cell line for an amino acid.
(§3) The potential of [^18F]3.09, [^18F]3.23, and [^18F]3.33 as PET radiotracers were evaluated for imaging brain and prostate cancer, cell uptake studies with rat 9 L gliosarcoma, human U87 ΔEGFR glioblastoma, and human DU145 androgen-independent prostate carcinoma. Uptake data for anti-3-[^18F]-FACBC were also collected under the same conditions for comparison. Alpha-(methylamino)isobutyric acid (MeAIB) was used as a competitive inhibitor for system A transport, 2-amino-bicyclo[2.2.1]heptane2-carboxylic acid (BCH) was used to inhibit system L, and the combination of alanine, serine, and cysteine was used for inhibition of system ASC.

[2] = system: 9 L, U87 ΔEGFR, and DU145 cell; experiment: Cell uptake and uptake inhibition, stated across all cell lines tested; format: cell-based, rat; human; conditions: for mechanism of transport (in words): each of the cell lines tested; for relative cell uptake (in words): all cell lines
Method: Data are presented as percent ligand uptake of the initial dose per 0.5 million cells (% ID/5×10^5 cells).
as §1, §2, §3

[3] = system: intracranial 9 L gliosarcoma tumors; experiment: MicroPET biodistribution in Fischer rats bearing intracranial 9 L gliosarcoma tumors; format: in vivo; conditions: for tumor uptake at final time point: final time point / final scan; for background uptake in healthy brain: normal brain, range over the study
Method: To gain insight into the biodistribution profiles of [^18F]3.09, [^18F]3.23, and [^18F]3.33 each was administered to Fischer rats bearing intracranial 9 L gliosarcoma tumors, which have been used extensively as models for human glioma. With each tracer, uptake in 9 L tumors was higher than in normal brain tissue at all time points, peaking near the 12.5-minute time point. Tumor uptake was highest with [^18F]3.09 and stayed fairly constant at 2.0-2.2% injected dose per gram of tissue (% ID/g) throughout the course of the study. […] While absolute uptake in tumors was highest with [^18F]3.09, background uptake in healthy brain was also highest with this stereoisomer, ranging from 0.59-0.96% % ID/g, compared to uptake values of 0.39-0.46 and 0.28-0.36% ID/g obtained with [^18F]3.23 and [^18F]3.33, respectively.
(§4) [^18F]trans-3,4-DFACPC ([^18F]3.23) was prepared in 1.3% decay corrected radiochemical yield in greater than 99% radio-chemical purity. Competitive uptake inhibition studies with 9 L gliosarcoma, human U87 ΔEGFR glioblastoma, and human DU145 androgen-independent prostate carcinoma cells to establish the mechanism of transport of [^18F]3.23, as well as its affinity for each cell line. The biodistribution of [^18F]3.23 was assessed in normal and intracranial 9 L gliosarcoma bearing rats via micro-PET imaging.

[4] = MicroPET biodistribution in normal Fischer rats (bladder accumulation); format: in vivo; conditions: post injection
Method: DFACPC, and anti-3-[^18F] FACBC.
as §4
MicroPET biodistribution studies in normal Fischer rats established that bladder accumulation of [^18F]3.23 is delayed until at least 10 minutes post injection. In rats bearing intracranial 9 L gliosarcoma, [^18F]3.23 gave tumor uptake values of up to 1.2% injected dose per gram (% ID/g) and tumor to contralateral brain tissue ratios of up to 2.8.

[5] = system: human U87 ΔEGFR glioblastoma; experiment: Cell uptake inhibition study in U87 ΔEGFR glioblastoma cells; format: cell-based
Method: as §1, with “This experiment establishes the degree to which a given amino acid is taken up by a group of cells in the absence of any perturbing conditions and serves as the control.” left out
With this information in hand, the cell uptake experiment is performed again, but in the presence of an excess of a substrate known to have a high affinity for a particular transport system. […] Consequently, any reduction in cellular uptake of radioactivity relative to the control experiment is assumed to arise from loss of amino acid transport by the inhibited system. […] Furthermore, the degree to which the system participates in transport can be roughly evaluated by the percent loss (inhibition) of amino acid uptake relative to the control. […]

[6] = system: rat 9 L gliosarcoma; conditions: 9 L gliosarcoma cells; cited from earlier work
[7] = range over the three cell lines
[8] = 4.5-minute time point (highest for the tracer)

Structure (SMILES): N[C@]1(C(=O)O)C[C@@H](F)C1 [anti-3-[^18F]-FACBC, anti-1-amino-3-[^18F]fluorocyclobutane-1-carboxylic acid]
uptake in DU145 cells [1]: 20 % ID/5×10^5 cells
uptake levels, percent of the initial dose per 0.5 million cells ([2]; across all cell lines tested, no inhibitor, 30 min incubation): 6-20 % ID/5×10^5 cells
mechanism of transport (in words) [2]: primarily a substrate for system ASC
inhibition of uptake by BCH (system L) [2, 7]: 36-56%
inhibition of uptake by alanine, serine, and cysteine (system ASC) [2, 7]: 73-87%

Structure (SMILES): N[C@@]1(C(=O)O)C[C@@H]([18F])[C@@H](F)C1 [[^18F]3.33, syn-cis-[^18F]-1-amino-3,4-difluorocyclopentane-1-carboxylic acid]
L/N ratio [3, 8]: 4.3
tumor uptake at final time point ([3]; 9 L tumor): 0.8 % ID/g
tumor uptake, peak value ([3]; 9 L tumor, peak / maximum): 1.2 % ID/g
background uptake in healthy brain [3]: 0.28-0.36 % ID/g

Structure (SMILES): N[C@]1(C(=O)O)CCC[C@@H]1[18F] [anti-2-[^18F]-FACPC, anti-1-amino-2-[^18F] fluorocyclopentane-1-carboxylic acid]
inhibition of uptake by BCH (system L) [6]: 71%
inhibition of uptake by MeAIB (system A) [6]: 38%
inhibition of uptake by alanine, serine, and cysteine (system ASC) [6]: 65%

Further lines, with some results ahead:

tumor uptake at final time point ([3]; 9 L tumor): 1.1 % ID/g
L/N ratio ([3]; 12.5-minute mark (maximum)): 2.8
L/N ratio ([3]; 52.5 minutes): 2.4
tumor to contralateral brain tissue ratios ([3]; maximum (up to)): up to 2.8
background uptake in healthy brain [3]: 0.39-0.46 % ID/g
bladder accumulation delayed until [4]: at least 10 minutes
Structure (SMILES): N[C@]1(C(=O)O)C[C@@H](F)[C@H]([18F])C1 (racemic) [[^18F]3.23, trans-[^18F]-1-amino-3,4-difluorocyclopentane-1-carboxylic acid]
avidity of DU145 cells (in words) [1]: substantially greater avidity
uptake in DU145 cells, fold higher than [^18F]-FACBC [1]: 1.7 fold
uptake in DU145 cells, fold higher than the best cis-3,4-DFACPC analog [1]: ~2 fold
uptake in DU145 cells [1]: 34 % ID/5×10^5 cells
relative cell uptake (in words) [2]: greater uptake than [^18F]3.33 in all cell lines
mechanism of transport (in words) [2]: transported primarily via system L with some transport occurring via system ASC

L/N ratio [3, 8]: 3.5
tumor uptake, injected dose per gram of tissue ([3]; 9 L tumor, throughout the course of the study): 2.0-2.2 % ID/g
background uptake in healthy brain [3]: 0.59-0.96 % ID/g
Structure (SMILES): N[C@]1(C(=O)O)C[C@@H](F)[C@@H]([18F])C1 [[^18F]3.09, anti-cis-[^18F]-1-amino-3,4-difluorocyclopentane-1-carboxylic acid]
inhibition of uptake by BCH [5]: 50%
inhibition of uptake by alanine, serine, and cysteine [5]: 78%
uptake in DU145 cells [1]: 18 % ID/5×10^5 cells
relative cell uptake (in words) [2]: greater uptake than [^18F]3.33 in all cell lines
